Reference: patent US12629406B2, “Alterations in endothelin receptors following hemorrhage and resuscitation by centhaquin” (MIDWESTERN UNIVERSITY, priority 2018, dated 2026)

Tests used:
[1] = Phase II study of PMZ-2010 as resuscitative agent for hypovolemic shock (CTRI/2017/03/008184), interim analysis; format: in vivo, human
From the text: A prospective, multi-centric, randomized, double-blind, parallel, saline controlled phase II study of PMZ-2010 (centhaquin) as a resuscitative agent for hypovolemic shock due to excessive blood loss (CTRI/2017/03/008184) is being conducted. All subjects received standard treatment for shock (the type of treatment and care the enrolling institution would provide). Patients were randomly assigned to either control cohort (N=7) that received standard treatment along with normal saline or PMZ-2010 cohort (N=12) that received standard treatment along with PMZ-2010.

[2] = Rat hemorrhagic shock, hypertonic saline resuscitation: cardiovascular response (MAP, HR, CO, SVR); format: in vivo; conditions: for heart rate (HR): 60 minutes after resuscitation
Procedure: Animals. Male Sprague-Dawley rats (340 to 380 g) (Envigo, Indianapolis, IN) were housed for at least 4 days in a room with controlled temperature (23±1° C.), humidity (50±10%) and light (6:00 A.M. to 6:00 P.M.) before being used. Food and water were made available continuously. Animal care and use for experimental procedures were approved by the Institutional Animal Care and Use Committee of the Midwestern University. All anesthetic and surgical procedures were in compliance with the guidelines established by the Animal Care Committee.
Determination of cardiovascular response. The animals were anesthetized with urethane dissolved in isotonic saline. Urethane was administered in a dose of 1.5 g per kg body weight via intraperitoneal injection. Urethane was selected as an anesthetic agent, because it produces long lasting (8-10 hours) anesthesia with minimal cardiovascular and respiratory system depression. It produces a level of surgical anesthesia characterized by preservation of cardiovascular reflexes (Maggi and Meli 1986). Briefly, anaesthetized rats were immobilized on a surgical board equipped with controlled heating pad. Blood PO2, Pco2 and pH, were maintained using a tracheotomy cannula connected to a rodent ventilator (Model 683, Harvard Apparatus Inc., Holliston, MA). The right carotid artery was exposed to measure the left ventricular performance. Surgical suture (Deknatel, Research Triangle Park, NC) was secured around the proximal end of the carotid artery and an ultra-miniature pressure-volume (P-V) catheter SPR-869 (Millar Instruments, Houston, TX) was inserted through a tiny incision made near the proximal end of the artery. The P-V terminal of the catheter was connected to MPVS-300 P-V unit through PEC-4D and CEC-4B cables and advanced into the left ventricle to obtain the P-V signals. The signals were continuously aquired (1000 S^−1) using the MPVS-300 P-V unit (AD Instruments, Mountain View, CA, USA) and PowerLab 16/30 data acquisition system (AD Instruments). MAP and HR were measured by cannulating the left femoral artery with pressure catheter SPR-320 (Millar Instruments), connected to the ML221 bridge amplifier (AD Instruments) through AEC-10C connector and the signals were acquired (1000 S^−1) using PowerLab 16/30 data acquisition system (Gulati et al. 2012; Pacher et al. 2008). The left femoral vein was cannulated using PE 50 tubing (Clay Adams, Parsipanny, NJ) and secured for resuscitation.
Induction of Hemorrhagic Shock. Hemorrhage was induced by withdrawing blood from the femoral artery at a rate of approximately 0.5 to 1 mL/min until a MAP of 35 mmHg was reached. This MAP was maintained for 30 min by further withdrawal of blood, if necessary. The hemorrhagic shock model used in the present study is a well-established rodent model of manageable pressure hemorrhage (Buehler et al. 2000; Gulati et al. 1997a; Gulati and Sen 1998). The volume of blood loss was about approximately 8.0 ml in each rat and was similar in various groups, amounting to approximately 40% of the total blood. Measured hematocrit levels were similar in various groups. The duration of blood withdrawal was approximately 15 minutes.
Experimental design. To determine the resuscitative effect of centhaquin on cardiovascular system and plasma cytokines in hemorrhagic shock, rats were randomly divided into five groups, Group 1: Sham control (Non-hemorrhaged) (n=5), Group 2: Hemorrhage with no resuscitation (n=5); Group 3: Hemorrhage followed by resuscitation with 3% hypertonic saline (vehicle) (n=5); Group 4: Hemorrhage followed by resuscitation with vehicle plus centhaquin (0.017 mg/kg) (n=5); and Group 5: Hemorrhage followed by resuscitation with vehicle plus centhaquin (0.05 mg/kg) (n=5). Resuscitation was started 30 min after induction of hemorrhagic shock as an intravenous infusion (1 mL/min) through femoral vein using an infusion pump (Harvard Apparatus Infusion/Withdrawal Pump, Millis, MA). […]

## Cc1cccc(N2CCN(CCc3ccc4ccccc4n3)CC2)c1 [centhaquin, 2-[2-(4-(3-methyphenyl)-1-piperazinyl)]ethyl-quinoline]
[1]; 48 hours after resuscitation, control 15.4%
  increase of diastolic blood pressure: 34.9%
[1]; baseline and discharge
  blood urea nitrogen versus control cohort: similar
[1]; baseline to discharge, control 25.35%
  decrease of serum creatinine level: 42.61%
[1]; baseline to discharge, control 40.00%
  increase of glomerular filtration rate: 81.52%
[1]; control 5.09±3.14 days
  time spent on ventilator: 0.85 ± 0.71 days
[1]; control 18.4±12.1 mg
  total amount of vasopressors needed in first 48 hours of resuscitation: 1.3 ± 1.2 mg
[1]; control 47%
  decrease of blood lactate levels: 63%
[1]; control 57.3%
  time in intensive care unit, of the total hospital stay: 39.3%
[1]; first 48 hours, 12 patients
  Total Number of doses administered: 13 doses in 12 patients
[1]; first 48 hours, Mean ± SEM
  Number of doses per patient: 1.08 ± 0.08
[1]; in vivo
  increase in glomerular filtration rate, more compared to standard treatment: 41.52%
  reduction of serum creatinine levels, more compared to standard treatment: 17.26%
  total blood products administered in the first 48 hours, less than control: 23.4%
  total fluids needed in the first 48 hours of resuscitation, less than control: 19.9%
[1]; patients, N=12
  adverse events (primary endpoint of safety): no adverse event was reported
[1]; systolic and diastolic, baseline to discharge (FIG. 9)
  blood pressure increase versus control cohort: more than that observed in control cohort
[1]; until 48 hours after resuscitation, control 34.5%
  increase of systolic blood pressure from baseline: 45.2%
[2]; 30 and 60 min post resuscitation
  cardiac output (CO) compared to hypertonic saline alone: significantly increased
[2]; 30 and 60 minutes of resuscitation, versus post-hemorrhage
  systemic vascular resistance (SVR): further decreased
[2]; centhaquin 0.017 mg/kg
  heart rate (HR): 361±10 beats/min
[2]; centhaquin 0.05 mg/kg
  heart rate (HR): 363±10 beats/min
[2]; centhaquin 0.017 and 0.05 mg/kg, for at least 60 min, p<0.01
  mean arterial pressure (MAP) post resuscitation: significant increase
[2]; hypertonic saline or centhaquin
  difference in HR following resuscitation: No significant difference
